In patent US8765944B2, “Compounds for the treatment of hepatitis C” (priority 2010, dated 2014):

System: HCV pseudoparticles
Experiment: HCV pseudoparticle infection assay (luciferase reporter, Huh7 cells)
Assay type: cell-based, HCV (genotype 1b E1 and E2 envelope)
Conditions: Hepatitis C virus, genotype 1b, Huh-7, 48 h, HCV pseudoparticles (genotype 1b), luciferase activity 2 days after infection

Row | Structure (SMILES) | EC50 (class) | EC50
1 | CC(C)S(=O)(=O)NC(=O)C(C)(C)CNC(=O)c1ccc(Nc2nc(NC3(c4ccc(Cl)cc4)CC3)nc(OCC(F)(F)F)n2)cc1 [Example 2088] | 0.5 to 100 nM | 
2 | CC(C)(CNC(=O)c1ccc(Nc2nc(NC3(c4ccc(Cl)cc4)CC3)nc(OCC(F)(F)F)n2)cc1)C(=O)NS(=O)(=O)C1CCC1 [Example 2089] | 0.5 to 100 nM | 
3 | CC(C)(CNC(=O)c1ccc(Nc2nc(NC3(c4ccc(Cl)cc4)CC3)nc(OCC(F)(F)F)n2)cc1)C(=O)NS(=O)(=O)C(C)(C)C [Example 2090] | 0.5 to 100 nM | 
4 | CCC1(S(=O)(=O)NC(=O)C(C)(C)CNC(=O)c2ccc(Nc3nc(NC4(c5ccc(Cl)cc5)CC4)nc(OCC(F)(F)F)n3)cc2)CC1 [Example 2091] | 0.5 to 100 nM | 
5 | CCCC1(S(=O)(=O)NC(=O)C(C)(C)CNC(=O)c2ccc(Nc3nc(NC4(c5ccc(Cl)cc5)CC4)nc(OCC(F)(F)F)n3)cc2)CC1 [Example 2092] | 0.5 to 100 nM | 
6 | CN(C)S(=O)(=O)NC(=O)C(C)(C)CNC(=O)c1ccc(Nc2nc(NC3(c4ccc(Cl)cc4)CC3)nc(OCC(F)(F)F)n2)cc1 [Example 2093] | 0.5 to 100 nM | 
7 | COCCS(=O)(=O)NC(=O)C(C)(C)CNC(=O)c1ccc(Nc2nc(NC3(c4ccc(Cl)cc4)CC3)nc(OCC(F)(F)F)n2)cc1 [Example 2094] | 0.5 to 100 nM | 
8 | CC(C)(CNC(=O)c1ccc(Nc2nc(NC3(c4ccc(Cl)cc4)CC3)nc(OCC(F)(F)F)n2)cc1)C(=O)NC1(C(=O)NS(=O)(=O)C2CC2)CC1 [Example 2095] | 0.5 to 100 nM | 
9 | CC(C)(C)OC(=O)NC[C@H](NC(=O)c1ccc(Nc2nc(NC3(c4ccc(Cl)cc4)CC3)nc(OCC(F)(F)F)n2)cc1)C(=O)NS(=O)(=O)C1CC1 [Example 2096] | 0.5 to 100 nM | 
10 | O=C(NS(=O)(=O)c1ccc(Nc2nc(NC3(c4ccc(Cl)cc4)CC3)nc(OCC(F)(F)F)n2)cc1)C1(CN2CCCC2)CC1 [Example 3001] | 1000 to 5000 nM | 
11 | O=C(NS(=O)(=O)c1ccc(Nc2nc(NC3(c4ccc(Cl)cc4)CC3)nc(OCC(F)(F)F)n2)cc1)C1(CN2CCCCC2)CC1 [Example 3002] | 100 to 1000 nM | 477 nM
12 | O=C(NS(=O)(=O)c1ccc(Nc2nc(NC3(c4ccc(Cl)cc4)CC3)nc(OCC(F)(F)F)n2)cc1)C1(CN2CCOCC2)CC1 [Example 3003] | 100 to 1000 nM | 822 nM
13 | CCN(CC)CC1(C(=O)NS(=O)(=O)c2ccc(Nc3nc(NC4(c5ccc(Cl)cc5)CC4)nc(OCC(F)(F)F)n3)cc2)CC1 [Example 3004] | 1000 to 5000 nM | 1640 nM
14 | CC(C)NCC1(C(=O)NS(=O)(=O)c2ccc(Nc3nc(NC4(c5ccc(Cl)cc5)CC4)nc(OCC(F)(F)F)n3)cc2)CC1 [Example 3005] | 1000 to 5000 nM | 
15 | CN(C)CC1(C(=O)NS(=O)(=O)c2ccc(Nc3nc(NC4(c5ccc(Cl)cc5)CC4)nc(OCC(F)(F)F)n3)cc2)CC1 [Example 3006] | 1000 to 5000 nM | 2700 nM
16 | CC(C)(C)CNCC1(C(=O)NS(=O)(=O)c2ccc(Nc3nc(NC4(c5ccc(Cl)cc5)CC4)nc(OCC(F)(F)F)n3)cc2)CC1 [Example 3007] | 1000 to 5000 nM | 2800 nM
17 | O=C(CN1CCCC1=O)NCC1(C(=O)NS(=O)(=O)c2ccc(Nc3nc(NC4(c5ccc(Cl)cc5)CC4)nc(OCC(F)(F)F)n3)cc2)CC1 [Example 3008] | 100 to 1000 nM | 976 nM
18 | O=C(CCN1CCS(=O)(=O)CC1)NCC1(C(=O)NS(=O)(=O)c2ccc(Nc3nc(NC4(c5ccc(Cl)cc5)CC4)nc(OCC(F)(F)F)n3)cc2)CC1 [Example 3009] | 1000 to 5000 nM | 
19 | CC(=O)NS(=O)(=O)CCNC(=O)c1ccc(Nc2nc(NC3(c4ccc(Cl)cc4)CC3)nc(OCC(F)(F)F)n2)cc1 [Example 4000] | 0.5 to 100 nM | 
20 | CC(C)C(=O)NS(=O)(=O)CCNC(=O)c1ccc(Nc2nc(NC3(c4ccc(Cl)cc4)CC3)nc(OCC(F)(F)F)n2)cc1 [Example 4001] | 0.5 to 100 nM | 
21 | O=C(NCCS(=O)(=O)NC(=O)C1CC1)c1ccc(Nc2nc(NC3(c4ccc(Cl)cc4)CC3)nc(OCC(F)(F)F)n2)cc1 [Example 4002] | 0.5 to 100 nM | 
22 | CC(F)(F)CC(=O)NS(=O)(=O)CCNC(=O)c1ccc(Nc2nc(NC3(c4ccc(Cl)cc4)CC3)nc(OCC(F)(F)F)n2)cc1 [Example 4003] | 0.5 to 100 nM | 
23 | CC(C)(C)OC(=O)N1CCC[C@H]1C(=O)NS(=O)(=O)CCNC(=O)c1ccc(Nc2nc(NC3(c4ccc(Cl)cc4)CC3)nc(OCC(F)(F)F)n2)cc1 [Example 4004] | 0.5 to 100 nM | 2.6 nM
24 | CC(C)(C)OC(=O)N1CCC(C(=O)NS(=O)(=O)CCNC(=O)c2ccc(Nc3nc(NC4(c5ccc(Cl)cc5)CC4)nc(OCC(F)(F)F)n3)cc2)CC1 [Example 4005] | 0.5 to 100 nM | 
25 | CC(C)(C)OC(=O)N1C[C@@H](NC(=O)c2ccc(Nc3nc(NC4(c5ccc(Cl)cc5)CC4)nc(OCC(F)(F)F)n3)cc2)C[C@@H]1C(=O)NS(=O)(=O)C1CC1 [Example 5000] | 0.5 to 100 nM | 
26 | CC(C)(C)OC(=O)N1C[C@@H](NC(=O)c2ccc(Nc3nc(NC4(c5ccc(Cl)cc5)CC4)nc(OCC(F)(F)F)n3)cc2)C[C@@H]1C(=O)NC1(C(=O)NS(=O)(=O)C2CC2)CC1 [Example 5002] | 0.5 to 100 nM | 

Row | Structure (SMILES) | EC50 (class) | EC50
27 | CC(C)S(=O)(=O)NC(=O)COc1ccc(C2(Nc3nc(Nc4ccc(C(=O)NCC5(CN6CCCC6)CC5)cc4)nc(OCC(F)(F)F)n3)CC2)cc1 [Example 6000, 4-(4-(1-(4-(2-(1-methylethylsulfonamido)-2-oxoethoxy)phenyl)cyclopropylamino)-6-(2,2,2-trifluoroethoxy)-1,3,5-triazin-2-ylamino)-N-((1-(pyrrolidin-1-ylmethyl)cyclopropyl)methyl)benzamide] | 0.5 to 100 nM | 
28 | O=C(NCC1(CN2CCCC2)CC1)c1ccc(Nc2nc(NC3(c4ccc(C(=O)NS(=O)(=O)C5CC5)cc4)CC3)nc(OCC(F)(F)F)n2)cc1 [Example 7001, N-(cyclopropylsulfonyl)-4-(1-(4-(4-((1-(pyrrolidin-1-ylmethyl)cyclopropyl)methylcarbamoyl)phenylamino)-6-(2,2,2-trifluoroethoxy)-1,3,5-triazin-2-ylamino)cyclopropyl)benzamide] | 0.5 to 100 nM | 
29 | O=C(NCC1(CN2CCCC2)CC1)c1ccc(Nc2nc(NC3(c4ccc(C(=O)NS(=O)(=O)C5CCC5)cc4)CC3)nc(OCC(F)(F)F)n2)cc1 [Example 7002] | 0.5 to 100 nM | 
30 | NC(=O)c1ccc(Nc2nc(N[C@]3(C(=O)NS(=O)(=O)C4CC4)C[C@H]3C3CC3)nc(OCC(F)(F)F)n2)cc1 [Example 8001] | 1000 to 5000 nM | 
31 | NC(=O)c1ccc(Nc2nc(NC3(C(=O)NS(=O)(=O)C4CC4)CC3)nc(OCC(F)(F)F)n2)cc1 [Example 8002] | 1000 to 5000 nM | 
32 | O=C(NS(=O)(=O)CCCN1CCCC1)c1ccc(Nc2nc(NC3(c4ccc(Cl)cc4)CC3)nc(N3CCCC3)n2)cc1 [Example 8003] | 1000 to 5000 nM | 
33 | CCC(=O)NS(=O)(=O)c1ccc(Nc2nc(NC3(c4ccc(Cl)cc4)CC3)nc(OCC(F)(F)F)n2)cc1 [Example 8004] | 1000 to 5000 nM | 2980 nM
34 | O=C(NS(=O)(=O)c1ccc(Nc2nc(NC3(c4ccc(Cl)cc4)CC3)nc(OCC(F)(F)F)n2)cc1)c1ccccc1 [Example 8005] | 1000 to 5000 nM | 
35 | O=C(NS(=O)(=O)c1ccc(Nc2nc(NC3(c4ccc(Cl)cc4)CC3)nc(OCC(F)(F)F)n2)cc1)C1CC1 [Example 8006] | 1000 to 5000 nM | 2990 nM
36 | CC(C)C(=O)NS(=O)(=O)c1ccc(Nc2nc(NC3(c4ccc(Cl)cc4)CC3)nc(OCC(F)(F)F)n2)cc1 [Example 8007] | 1000 to 5000 nM | 5400 nM
37 | COCC1(S(=O)(=O)N(C)C(=O)c2ccc(N(C)c3nc(NC4(c5ccc(Cl)cc5)CC4)nc(OC)n3)cc2)CC1 [Example 8008] | 1000 to 5000 nM | 
38 | COCC1(S(=O)(=O)N(C)C(=O)c2ccc(Nc3nc(OC)nc(N(C)C4(c5ccc(Cl)cc5)CC4)n3)cc2)CC1 [Example 8009] | 1000 to 5000 nM | 
39 | COCC1(S(=O)(=O)NC(=O)c2ccc(N(C)c3nc(OCC(F)(F)F)nc(N(C)C4(c5ccc(Cl)cc5)CC4)n3)cc2)CC1 [Example 8010] | 1000 to 5000 nM | 
40 | O=C(NS(=O)(=O)c1ccccc1)c1ccc(Nc2nc(NC3(c4ccc(Cl)cc4)CC3)nc(OCC(F)(F)F)n2)cc1 [Example 8011] | 0.5 to 100 nM | 
41 | Cc1ccccc1S(=O)(=O)NC(=O)c1ccc(Nc2nc(NC3(c4ccc(Cl)cc4)CC3)nc(OCC(F)(F)F)n2)cc1 [Example 8012] | 0.5 to 100 nM | 
42 | O=C(NS(=O)(=O)c1ccc(F)cc1)c1ccc(Nc2nc(NC3(c4ccc(Cl)cc4)CC3)nc(OCC(F)(F)F)n2)cc1 [Example 8013] | 0.5 to 100 nM | 
43 | O=C(NS(=O)(=O)C1(Cc2ccccc2)CC1)c1ccc(Nc2nc(NC3(c4ccc(Cl)cc4)CC3)nc(OCC(F)(F)F)n2)cc1 [Example 8014] | 0.5 to 100 nM | 12.7 nM
44 | O=C(NS(=O)(=O)C1(C(=O)Nc2ccccc2)CC1)c1ccc(Nc2nc(NC3(c4ccc(Cl)cc4)CC3)nc(OCC(F)(F)F)n2)cc1 [Example 8015] | 0.5 to 100 nM | 
45 | O=C(NS(=O)(=O)C1(Cc2ccccc2F)CC1)c1ccc(Nc2nc(NC3(c4ccc(Cl)cc4)CC3)nc(OCC(F)(F)F)n2)cc1 [Example 8016] | 0.5 to 100 nM | 
46 | O=C(NS(=O)(=O)C1CCCC1)c1ccc(Nc2nc(NC3(c4ccc(Cl)cc4)CC3)nc(OCC(F)(F)F)n2)cc1 [Example 8017] | 0.5 to 100 nM | 
47 | Cn1cnc(C[C@H](NC(=O)c2ccc(Nc3nc(NC4(c5ccc(Cl)cc5)CC4)nc(OCC(F)(F)F)n3)cc2)C(=O)NS(=O)(=O)C2CC2)c1 [Example 8018] | 0.5 to 100 nM | 
48 | Cn1cnc(C[C@H](NC(=O)c2ccc(Nc3nc(NC4(c5ccc(Cl)cc5)CC4)nc(OCC(F)(F)F)n3)cc2)C(=O)N[C@]2(C(=O)NS(=O)(=O)C3CC3)C[C@H]2C2CC2)c1 [Example 8019] | 0.5 to 100 nM | 
49 | Cn1cnc(C[C@H](NC(=O)c2ccc(Nc3nc(NC4(c5ccc(Cl)cc5)CC4)nc(OCC(F)(F)F)n3)cc2)C(=O)N[C@]2(C(=O)NS(=O)(=O)C3CCC3)C[C@H]2C2CC2)c1 [Example 8020] | 0.5 to 100 nM | 
50 | Cn1cnc(C[C@H](NC(=O)c2ccc(Nc3nc(NC4(c5ccc(Cl)cc5)CC4)nc(OCC(F)(F)F)n3)cc2)C(=O)N[C@]2(C(=O)NS(=O)(=O)C(C)(C)C)C[C@H]2C2CC2)c1 [Example 8021] | 0.5 to 100 nM | 
51 | CN(C)CC1(S(=O)(=O)NC(=O)c2ccc(Nc3nc(OCC(F)(F)F)nc(N4CCN(S(C)(=O)=O)CC4)n3)cc2)CC1 [Example 8022] | 1000 to 5000 nM | 
